From patent US6909023B2, “Production method for benzenedimethanol compound” (Showa Denko K.K., priority 2000, dated 2005)

Experiment: solubility in water at room temperature

OCc1c(F)c(F)c(CO)c(F)c1F [2,3,5,6-tetrafluorobenzenedimethanol]
solubility in water: about 25 g/L
